What was measured:
[1] = tested on: fasting Type II diabetic patients; test: Subcutaneous administration to fasting Type II diabetic patients: plasma glucose; type: in vivo, human
glucose disposal = test: Euglycemic glucose-clamp: glucose disposal rate; type: in vivo, human
Description: With this technique, an antecuubital vein is cannulated in an antegrade manner to administer the infusates. A dorsal hand vein is cannulated in a retrograde fashion and kept in a warming device (70° C.) to facilitate venous sampling and provide arterialized venous blood After insertion of the catheters, [3-3H]-glucose is infused for at least 30 minutes before initiating the hormone infusion. At the onset of hormone infusion, a priming dose of either insulin or proinsulin is administered during the initial 10 minutes in a logarithmically decreasing manner to acutely raise the serum hormone level. The amount of insulin or proinsulin given during this initial 10 minute period is roughly twice that given during each subsequent 10 minute interval by a continuous hormone infusion The serum glucose is maintained between 80 and 90 mg/dl throughout the study period with a coefficient of variation of less than 5% by means of a variable rate of infusion of 20% dextrose. The overall glucose disposal rate is assessed isotopically for each 20 minute interval of the study.
On one day, each subject received a 5.0 μg/M^2 /min (120 mU/M^2 /min) insulin infusion over a 6 hour period. […] Each proinsulin infusion was carried out for 300 minutes, with the quantitation of its biological effects based on measurements made during the 5th hour of each study. […]

hepatic glucose output = test: Euglycemic glucose-clamp: suppression of hepatic glucose output; type: in vivo, human
Description: J. Physiol. 237:E214-E223 (1979). With this technique, an antecuubital vein is cannulated in an antegrade manner to administer the infusates. A dorsal hand vein is cannulated in a retrograde fashion and kept in a warming device (70° C.) to facilitate venous sampling and provide arterialized venous blood After insertion of the catheters, [3-3H]-glucose is infused for at least 30 minutes before initiating the hormone infusion. At the onset of hormone infusion, a priming dose of either insulin or proinsulin is administered during the initial 10 minutes in a logarithmically decreasing manner to acutely raise the serum hormone level. […] The overall glucose disposal rate is assessed isotopically for each 20 minute interval of the study.
Each subject underwent a total of 8 euglycemic glucose clamp studies, each performed on a separate day. […] Hepatic glucose output was quantitated in the basal state and during each clamp study using a primed continuous infusion of [3-3H]glucose. […] The dose response relationship for insulin and proinsulin mediated suppression of hepatic glucose output was determined by calculating the percent suppression of basal hepatic glucose output at each steady state hormone concentration obtained during the euglycemic clamp studies.

[2] = after stopping 5 hour infusion
From the text: At this point, the hormone infusion was abruptly stopped, and the glucose concentration was maintained constant until the biologic effects of the infused hormone were no longer detectable.

[3] = Study A (insulin 15 mU/M^2/min, proinsulin 2.75 μg/M^2/min), Mean ± SE

## human proinsulin: human proinsulin, available by organic synthesis, isolation from human pancreas or recombinant DNA methodology
[1]; subject one, total dose 14.8 I.U. (0.2 U/kg s.c.), 0 min after injection
  Plasma Glucose: 213 mg/dL
[1]; subject one, total dose 14.8 I.U. (0.2 U/kg s.c.), 40 min after injection
  Plasma Glucose: 203 mg/dL
[1]; subject one, total dose 14.8 I.U. (0.2 U/kg s.c.), 80 min after injection
  Plasma Glucose: 187 mg/dL
[1]; subject one, total dose 14.8 I.U. (0.2 U/kg s.c.), 160 min after injection
  Plasma Glucose: 140 mg/dL
[1]; subject one, total dose 14.8 I.U. (0.2 U/kg s.c.), 240 min after injection
  Plasma Glucose: 81 mg/dL
[1]; subject one, total dose 14.8 I.U. (0.2 U/kg s.c.), 280 min after injection
  Plasma Glucose: 77 mg/dL
[1]; subject one, total dose 14.8 I.U. (0.2 U/kg s.c.), 300 min after injection
  Plasma Glucose: 80 mg/dL
[1]; subject one, total dose 14.8 I.U. (0.2 U/kg s.c.), 320 min after injection
  Plasma Glucose: 80 mg/dL
[1]; subject three, total dose 27.2 I.U. (0.2 U/kg s.c.), 0 min after injection
  Plasma Glucose: 159 mg/dL
[1]; subject three, total dose 27.2 I.U. (0.2 U/kg s.c.), 40 min after injection
  Plasma Glucose: 144 mg/dL
[1]; subject three, total dose 27.2 I.U. (0.2 U/kg s.c.), 120 min after injection
  Plasma Glucose: 128 mg/dL
[1]; subject three, total dose 27.2 I.U. (0.2 U/kg s.c.), 200 min after injection
  Plasma Glucose: 110 mg/dL
[1]; subject three, total dose 27.2 I.U. (0.2 U/kg s.c.), 240 min after injection
  Plasma Glucose: 101 mg/dL
[1]; subject three, total dose 27.2 I.U. (0.2 U/kg s.c.), 280 min after injection
  Plasma Glucose: 98 mg/dL
[1]; subject three, total dose 27.2 I.U. (0.2 U/kg s.c.), 300 min after injection
  Plasma Glucose: 88 mg/dL
[1]; subject three, total dose 27.2 I.U. (0.2 U/kg s.c.), 360 min after injection
  Plasma Glucose: 84 mg/dL
[1]; subject three, total dose 27.2 I.U. (0.2 U/kg s.c.), 400 min after injection
  Plasma Glucose: 85 mg/dL
[1]; subject three, total dose 27.2 I.U. (0.2 U/kg s.c.), 440 min after injection
  Plasma Glucose: 86 mg/dL
[1]; subject three, total dose 27.2 I.U. (0.2 U/kg s.c.), 480 min after injection
  Plasma Glucose: 88 mg/dL
[1]; subject two, total dose 20.0 I.U. (0.2 U/kg s.c.), 0 min after injection
  Plasma Glucose: 231 mg/dL
[1]; subject two, total dose 20.0 I.U. (0.2 U/kg s.c.), 40 min after injection
  Plasma Glucose: 217 mg/dL
[1]; subject two, total dose 20.0 I.U. (0.2 U/kg s.c.), 80 min after injection
  Plasma Glucose: 201 mg/dL
[1]; subject two, total dose 20.0 I.U. (0.2 U/kg s.c.), 120 min after injection
  Plasma Glucose: 191 mg/dL
[1]; subject two, total dose 20.0 I.U. (0.2 U/kg s.c.), 160 min after injection
  Plasma Glucose: 182 mg/dL
[1]; subject two, total dose 20.0 I.U. (0.2 U/kg s.c.), 240 min after injection
  Plasma Glucose: 164 mg/dL
[1]; subject two, total dose 20.0 I.U. (0.2 U/kg s.c.), 280 min after injection
  Plasma Glucose: 143 mg/dL
[1]; subject two, total dose 20.0 I.U. (0.2 U/kg s.c.), 300 min after injection
  Plasma Glucose: 134 mg/dL
[1]; subject two, total dose 20.0 I.U. (0.2 U/kg s.c.), 360 min after injection
  Plasma Glucose: 128 mg/dL
[1]; subject two, total dose 20.0 I.U. (0.2 U/kg s.c.), 400 min after injection
  Plasma Glucose: 117 mg/dL
[1]; subject two, total dose 20.0 I.U. (0.2 U/kg s.c.), 440 min after injection
  Plasma Glucose: 112 mg/dL
[1]; subject two, total dose 20.0 I.U. (0.2 U/kg s.c.), 480 min after injection
  Plasma Glucose: 104 mg/dL
[1]; subject two, total dose 20.0 I.U. (0.2 U/kg s.c.), 500 min after injection
  Plasma Glucose: 100 mg/dL
[1]; subject, total dose 15.0 I.U. (0.2 U/kg s.c.), 0 min after injection
  Plasma Glucose: 332 mg/dL
[1]; subject, total dose 15.0 I.U. (0.2 U/kg s.c.), 40 min after injection
  Plasma Glucose: 328 mg/dL
[1]; subject, total dose 15.0 I.U. (0.2 U/kg s.c.), 80 min after injection
  Plasma Glucose: 308 mg/dL
[1]; subject, total dose 15.0 I.U. (0.2 U/kg s.c.), 120 min after injection
  Plasma Glucose: 288 mg/dL
[1]; subject, total dose 15.0 I.U. (0.2 U/kg s.c.), 160 min after injection
  Plasma Glucose: 272 mg/dL
[1]; subject, total dose 15.0 I.U. (0.2 U/kg s.c.), 200 min after injection
  Plasma Glucose: 247 mg/dL
[1]; subject, total dose 15.0 I.U. (0.2 U/kg s.c.), 240 min after injection
  Plasma Glucose: 210 mg/dL
[1]; subject, total dose 15.0 I.U. (0.2 U/kg s.c.), 280 min after injection
  Plasma Glucose: 174 mg/dL
[1]; subject, total dose 15.0 I.U. (0.2 U/kg s.c.), 360 min after injection
  Plasma Glucose: 94 mg/dL
Glucose disposal; 5 subjects, insulin 5.0 μg/M^2/min over 6 h, proinsulin 22.5 μg/M^2/min over 8 h
  Time to reach steady state rates of glucose disposal: ≤ 5 h
Glucose disposal; [3]
  Glucose Disposal Rate: 122 ± 11 mg/M^2/min
Hepatic glucose output; [3]
  Suppression of Hepatic Glucose Output (%): 80 ± 6%
Hepatic glucose output; healthy subjects, steady state, euglycemic clamp
  Serum hormone concentration required to achieve 90% suppression of hepatic glucose output: 3.35 pmol/mL
[2]
  Time by which hormone concentrations are below biologically effective values: ≤ 90 minutes
